This is an account of results in US20090062294A1, “HETEROARYL-SUBSTITUTED UREA MODULATORS OF FATTY ACID AMIDE HYDROLASE” (priority 2007, published 2009).

Counter-ions that a name gives are not always drawn.

Assay [1] has as its target T1, FAAH (Homo sapiens, UniProt O00519).
T1 sequence (O00519 1-579): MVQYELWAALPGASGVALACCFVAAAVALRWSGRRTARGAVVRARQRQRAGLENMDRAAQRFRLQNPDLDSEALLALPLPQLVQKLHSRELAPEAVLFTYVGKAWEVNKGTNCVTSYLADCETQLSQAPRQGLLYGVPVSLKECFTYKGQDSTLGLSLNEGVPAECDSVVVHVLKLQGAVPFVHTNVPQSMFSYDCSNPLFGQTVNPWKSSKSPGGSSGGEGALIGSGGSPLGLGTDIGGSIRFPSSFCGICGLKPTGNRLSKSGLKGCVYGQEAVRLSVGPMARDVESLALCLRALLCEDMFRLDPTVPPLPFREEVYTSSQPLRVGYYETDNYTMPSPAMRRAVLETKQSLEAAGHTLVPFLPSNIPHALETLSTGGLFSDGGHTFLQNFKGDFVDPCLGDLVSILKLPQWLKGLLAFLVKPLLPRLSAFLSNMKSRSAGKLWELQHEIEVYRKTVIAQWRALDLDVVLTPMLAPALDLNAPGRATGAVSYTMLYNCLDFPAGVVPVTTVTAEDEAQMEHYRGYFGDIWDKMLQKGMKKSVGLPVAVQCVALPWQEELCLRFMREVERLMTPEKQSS
Briefly: Assay Method 1: FAAH assay, 3H-anandamide hydrolysis in homogenate of T84 cells or SK-N-MC cells transfected with human FAAH. The class given is biochemical. The following applies: average of results, > = solubility limit or highest concentration tested. The method, boiled down: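 Hydrolysis of ^3H-anandamide (80 nM final, added last) was measured over 1 h at rt, using test compound with homogenate of T84 cells or human FAAH-transfected SK-N-MC cells. The homogenization buffer was 125 mM Tris, 1 mM EDTA, 0.02% Triton X-100, pH 9. Unbound labelled ethanolamine was passed through charcoal filters and scintillation-counted.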

Assay [2] has as its target T2, rat FAAH (Rattus norvegicus, UniProt P97612).
T2 sequence (P97612 1-579): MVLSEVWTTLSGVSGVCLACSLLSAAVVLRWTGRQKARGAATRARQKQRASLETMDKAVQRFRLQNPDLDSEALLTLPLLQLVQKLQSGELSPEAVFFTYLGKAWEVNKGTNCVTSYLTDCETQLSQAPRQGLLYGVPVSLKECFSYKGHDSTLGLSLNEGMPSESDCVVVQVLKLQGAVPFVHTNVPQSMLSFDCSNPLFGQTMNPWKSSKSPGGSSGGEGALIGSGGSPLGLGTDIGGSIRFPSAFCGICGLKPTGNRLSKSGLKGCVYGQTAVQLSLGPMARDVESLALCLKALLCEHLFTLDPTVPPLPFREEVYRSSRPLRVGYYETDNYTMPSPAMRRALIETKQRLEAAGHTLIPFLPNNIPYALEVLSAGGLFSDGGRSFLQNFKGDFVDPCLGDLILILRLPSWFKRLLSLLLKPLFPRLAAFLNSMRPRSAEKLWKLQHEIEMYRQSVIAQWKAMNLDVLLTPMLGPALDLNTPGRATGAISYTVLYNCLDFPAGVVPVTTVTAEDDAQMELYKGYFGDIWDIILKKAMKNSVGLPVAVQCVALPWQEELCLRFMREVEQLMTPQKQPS
Kind of assay: Assay Method 2: FAAH assay, 3H-anandamide hydrolysis in homogenate of SK-N-MC cells transfected with rat FAAH. The class given is biochemical. The settings on record: average of results, > = solubility limit or highest concentration tested. The method, boiled down:
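Read-out is scintillation counting of [3H]-ethanolamine passing through activated charcoal, after 1 h at rt with 80 nM final [3H]-AEA. Enzyme source: lysate of G418-selected SK-N-MC clones expressing rat FAAH, homogenized in Tris/EDTA/glycerol/0.02% Triton buffer, pH 9.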

`O=C(Nc1noc2ccccc12)N1CCN(Cc2cccc(Oc3ccc(OC(F)(F)F)cc3)c2)CC1` [Example 30, 4-[3-(4-Trifluoromethoxy-phenoxy)-benzyl]-piperazine-1-carboxylic acid benzo[d]isoxazol-3-ylamide trifluoroacetic acid salt]: the IC50 in assay [1] stood at 0.1 nM; in assay [2], 14 nM.
The like results for `O=C(Nc1cc[nH]n1)N1CCN(Cc2cccc(Oc3ccc(Cl)c(Cl)c3)c2)CC1` [Example 54, 4-[3-(3,4-Dichloro-phenoxy)-benzyl]-piperazine-1-carboxylic acid (1H-pyrazol-3-yl)-amide trifluoroacetic acid salt] were, in that order, 370 nM and 50 nM.
The matching figures for `O=C(Nc1noc2ccccc12)N1CCN(Cc2cccc(C#Cc3ccc(Cl)cc3)c2)CC1` [Example 74, N-1,2-Benzisoxazol-3-yl-4-{3-[(4-chlorophenyl)ethynyl]benzyl}-piperazine-1-carboxamide]: 410 nM and 325 nM.
The matching figures for `N#Cc1ccc(Oc2cccc(CN3CCN(C(=O)Nc4noc5ccccc45)CC3)c2)cc1C(F)(F)F` [Example 128, N-1,2-Benzisoxazol-3-yl-4-{3-[4-cyano-3-(trifluoromethyl)phenoxy]benzyl}piperazine-1-carboxamide]: 230 nM and 400 nM.
`O=C(Nc1cccnn1)N1CCN(Cc2ccc3c(c2)OC(F)(F)O3)CC1` [Example 196, 4-[(2,2-Difluoro-1,3-benzodioxol-5-yl)methyl]-N-pyridazin-3-ylpiperazine-1-carboxamide]: the values for the IC50 in assay [1] and in assay [2] were 6000 nM and 1600 nM, respectively.
The like results for `O=C(Nc1cnccn1)N1CCN(Cc2ccc(Br)c(Br)c2)CC1` [Example 217, 4-(3,4-Dibromobenzyl)-N-pyrazin-2-ylpiperazine-1-carboxamide] were, in that order, 150 nM and 250 nM.
The matching figures for `O=C(Nc1nn[nH]n1)N1CCN(Cc2cccc(Oc3ccccc3)c2)CC1` [Example 181, 4-(3-Phenoxy-benzyl)-piperazine-1-carboxylic acid (2H-tetrazol-5-yl)-amide]: 5000 nM and 1600 nM.
The matching figures for `N#Cc1cccc(C#Cc2cccc(CN3CCN(C(=O)Nc4noc5ccccc45)CC3)c2)c1` [Example 88, N-1,2-Benzisoxazol-3-yl-4-{3-[(3-cyanophenyl)ethynyl]benzyl}piperazine-1-carboxamide]: 15 nM and 65 nM.
Turning to `O=C(Nc1ccon1)N1CCN(Cc2cccc(Oc3ccc(Br)cc3)c2)CC1` [Example 145, 4-[3-(4-Bromophenoxy)benzyl]-N-isoxazol-3-ylpiperazine-1-carboxamide], the results for the half-inhibitory concentration (IC50) in assay [1] and in assay [2] were 16 nM and 430 nM, respectively.
The like results for `O=C(Nc1cccc2nsnc12)N1CCN(Cc2cccc(C#Cc3ccccc3)c2)CC1` [Example 202, N-2,1,3-Benzothiadiazol-4-yl-4-{[3-(phenylethynyl)phenyl]methyl}-piperazine-1-carboxamide] were, in that order, 45 nM and 85 nM.
The matching figures for `N#Cc1ccccc1C#Cc1cccc(CN2CCN(C(=O)Nc3noc4ccccc34)CC2)c1` [Example 85, N-1,2-Benzisoxazol-3-yl-4-{3-[(2-cyanophenyl)ethynyl]benzyl}-piperazine-1-carboxamide]: 18 nM and 23 nM.
As to `O=C(Nc1ccc2ccccc2n1)N1CCC(Cc2ccc3ccccc3c2)CC1` [Example 18, 4-Naphthalen-2-ylmethyl-piperidine-1-carboxylic acid quinolin-2-ylamide trifluoroacetic acid salt], the IC50 is > 10000 nM in assay [1] and 9000 nM in assay [2].
The matching figures for `O=C(Nc1ccon1)N1CCN(Cc2cccc(Oc3cccc(Br)c3)c2)CC1` [Example 157, 4-[3-(3-Bromophenoxy)benzyl]-N-isoxazol-3-ylpiperazine-1-carboxamide]: 80 nM and 360 nM.
With `C#Cc1cccc(CN2CCN(C(=O)Nc3noc4ccccc34)CC2)c1` [Example 68, 4-(3-Ethynyl-benzyl)-piperazine-1-carboxylic acid benzo[d]isoxazol-3-ylamide], the results for the concentration for half-maximal inhibition (IC50) in assay [1] and in assay [2] were 16 nM and 315 nM, respectively.
Consider `O=C(Nc1ccon1)N1CCN(Cc2cccc(Oc3ccc4ccccc4c3)c2)CC1` [Example 150, 4-[3-(Naphthalen-2-yloxy)-benzyl]-piperazine-1-carboxylic acid isoxazol-3-ylamide], for which the figures for the 50% inhibitory concentration (IC50) in assay [1] and in assay [2] were 400 nM and 1200 nM, respectively.
The like results for `O=C(Nc1cccc2nsnc12)N1CCN(Cc2cccc(Oc3cccc(C(F)(F)F)c3)c2)CC1` [Example 40, 4-[3-(3-Trifluoromethyl-phenoxy)-benzyl]-piperazine-1-carboxylic acid benzo[1,2,5]thiadiazol-4-ylamide trifluoroacetic acid salt] were, in that order, 156 nM and 15 nM.
The matching figures for `O=C(Nc1ccon1)N1CCN(Cc2cccc(Oc3ccc4ncccc4c3)c2)CC1` [Example 162, N-Isoxazol-3-yl-4-[3-(quinolin-6-yloxy)benzyl]piperazine-1-carboxamide]: 240 nM and 6400 nM.
The matching figures for `O=C(Nc1noc2ccccc12)N1CCN(Cc2cccc(Oc3ccc(Br)cc3)c2)CC1` [Example 32, 4-[3-(4-Bromo-phenoxy)-benzyl]-piperazine-1-carboxylic acid benzo[d]isoxazol-3-ylamide trifluoroacetic acid salt]: 3 nM and 4 nM.
Take `O=C(Nc1cnccn1)N1CCN(Cc2cccc(Oc3ccc(OCC(F)(F)F)cc3)c2)CC1` [Example 214, N-Pyrazin-2-yl-4-{3-[4-(2,2,2-trifluoroethoxy)phenoxy]benzyl}-piperazine-1-carboxamide]: the values for the IC50 in assay [1] and in assay [2] were 15 nM and 90 nM, respectively.
Turning to `O=C(Nc1cccs1)N1CCN(Cc2ccc3c(c2)OC(F)(F)O3)CC1` [Example 7, 4-(2,2-Difluoro-benzo[1,3]dioxol-5-ylmethyl)-piperazine-1-carboxylic acid thiophen-2-ylamide], the IC50 is 2000 nM in assay [1] and 2400 nM in assay [2].
Take `O=C(Nc1nn[nH]n1)N1CCN(Cc2cccc(Oc3ccc(OCC(F)(F)F)cc3)c2)CC1` [Example 188, N-2H-Tetrazol-5-yl-4-{3-[4-(2,2,2-trifluoroethoxy)phenoxy]benzyl}-piperazine-1-carboxamide]: the IC50 is 80 nM in assay [1] and 20 nM in assay [2].
The matching figures for `CCCCc1ccc(Oc2cccc(CN3CCN(C(=O)Nc4noc5ccccc45)CC3)c2)cc1` [Example 209, 4-[3-(4-Butyl-phenoxy)-benzyl]-piperazine-1-carboxylic acid benzo[d]isoxazol-3-ylamide]: 9 nM and 2 nM.
The matching figures for `O=C(Nc1nn[nH]n1)N1CCN(Cc2cc3ccccc3s2)CC1` [Example 183, 4-Benzo[b]thiophen-2-ylmethyl-piperazine-1-carboxylic acid (2H-tetrazol-5-yl)-amide]: 1400 nM and 430 nM.
The like results for `O=C(Nc1nn[nH]n1)N1CCN(Cc2cccc(Oc3ccc4c(c3)OC(F)(F)O4)c2)CC1` [Example 189, 4-{3-[(2,2-Difluoro-1,3-benzodioxol-5-yl)oxy]benzyl}-N-2H-tetrazol-5-ylpiperazine-1-carboxamide] were, in that order, 70 nM and 17 nM.
As for `O=C(Nc1noc2ccccc12)N1CCN(Cc2cccc(Oc3cnccn3)c2)CC1` [Example 97, N-1,2-Benzisoxazol-3-yl-4-[3-(pyrazin-2-yloxy)benzyl]piperazine-1-carboxamide], the half-inhibitory concentration (IC50) came to 270 nM in assay [1] and 5000 nM in assay [2].
